This note sets out measurements from paper PMC6010130, “Inhibition of Leishmania infantum trypanothione reductase by diaryl sulfide derivatives” (Journal of Enzyme Inhibition and Medicinal Chemistry, 2017).

Assay [1] has as its target T1, trypanothione reductase (TR) (Leishmania infantum, UniProt A4HSF7).
T1 construct: gene TRYR
Nature of the assay: X-ray crystal structure ([…] Å). The format is binding.

In assay [2] the target is T1, trypanothione reductase (TR). The experiment in a line: X-ray crystal structure ([…] Å, soaked oxidized TR); Ki from Dixon plot of the purified enzyme (NADPH oxidation at […] nm). The format is biochemical.

As a reminder, the Ki is a measure of affinity in units of concentration, obtained from inhibition or displacement. The low end stands for a stronger hold on the target, the high end for a looser hold on the target.

T1 sequence (A4HSF7 1-491): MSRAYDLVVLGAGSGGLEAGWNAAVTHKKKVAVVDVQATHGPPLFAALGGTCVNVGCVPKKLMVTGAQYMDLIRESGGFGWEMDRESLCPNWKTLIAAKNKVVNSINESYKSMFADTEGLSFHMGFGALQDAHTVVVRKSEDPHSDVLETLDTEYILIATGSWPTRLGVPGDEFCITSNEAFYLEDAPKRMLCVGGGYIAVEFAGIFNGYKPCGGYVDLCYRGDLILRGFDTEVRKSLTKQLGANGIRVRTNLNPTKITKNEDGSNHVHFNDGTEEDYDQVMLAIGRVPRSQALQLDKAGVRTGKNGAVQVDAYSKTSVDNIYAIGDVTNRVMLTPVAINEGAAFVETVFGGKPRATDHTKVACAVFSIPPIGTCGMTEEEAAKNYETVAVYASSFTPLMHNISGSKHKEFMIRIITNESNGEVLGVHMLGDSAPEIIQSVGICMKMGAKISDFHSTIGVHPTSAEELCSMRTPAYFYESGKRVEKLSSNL

For the molecule `Cc1cc2nc3c(=O)[nH]c(=O)nc-3n(C[C@H](O)[C@H](O)[C@H](O)COP(=O)(O)OP(=O)(O)OC[C@H]3O[C@@H](n4cnc5c(N)ncnc54)[C@H](O)[C@@H]3O)c2cc1C` [FAD], the “X-ray crystal structure (3.5 Å)” value in assay [1] was “Each monomer contains a FAD molecule”.
In the case of `CCC(C)Oc1cc(N)nc(Sc2cccc(Cl)c2)n1` (centres unmarked) [RDS 777, 6-(sec-butoxy)-2-((3-chlorophenyl)thio)pyrimidin-4-amine], the Ki in assay [2] was determined as 250 ± 180 nM.
